Data on 23 compounds can be found in US8802240B2, “Uses of formulations of thyroid hormone analogs and nanoparticulate forms thereof to increase chemosensitivity and radiosensitivity in tumor or cancer cells” (Nanopharmaceuticals LLC, priority 2011, dated 2014).

The test system of data set [1] is chick chorioallantoic membrane (CAM) blood vessel branch points. Kind of data set: Chick chorioallantoic membrane (CAM) model of angiogenesis. Format: in vivo. Here is the method:
In vivo neovascularization was examined by methods described previously. 9-12 Ten-day-old chick embryos were purchased from SPAFAS (Preston, Conn.) and incubated at 37° C. with 55% relative humidity. A hypodermic needle was used to make a small hole in the shell concealing the air sac, and a second hole was made on the broad side of the egg, directly over an avascular portion of the embryonic membrane that was identified by candling. A false air sac was created beneath the second hole by the application of negative pressure at the first hole, causing the CAM to separate from the shell. […] Thyroid hormone, hormone analogs, FGF2 or control solvents, and inhibitors were then applied to the disks and the disks allowed to dry. The disks were then suspended in PBS and placed on growing CAMs. […] At 24 hours, the MAPK cascade inhibitor PD 98059 was also added to CAMs topically by means of the filter disks. […] The number of vessel branch points contained in a circular region equal to the area of each filter disk were counted. […] In addition, each experiment was performed 3 times. The resulting angiogenesis index is the mean±SEM of new branch points.

Data set [2] concerns matrigel plug angiogenesis. The data set can be described thus: Mouse matrigel model of angiogenesis (plug hemoglobin). Format: in vivo, mice (C57BL/6NCr). The conditions noted are these: for inhibition in vivo at 10 µg/plug: Mus musculus, FGF 100 ng + test substance 10 μg/plug; for inhibition in vivo at 10 µg/plug / inhibition of FGF-induced angiogenesis (in words): numbers are Tetrac analogs of Example 13. Here is the method: Normal male mice (C57BL/6NCr) 6-8 weeks of age and weighing ˜20 g were purchased from Taconic farm. Animals were housed 4 per cage, in controlled conditions of temperature (20-24° C.); humidity (60-70%) and 12 hrs. light/dark cycle provided with food and water ad libitum. […] Aliquots of matrigel were placed into cold polypropylene tubes to prevent the matrigel from solidifying and the angiogenesis promoter added to matrigel with or without agonist. Mice were treated daily. Matrigel was subcutaneously injected as triple injection per animal at 100 μL/animal. At day 14 post plug implant all animals were killed in CO2 chamber and matrigel plugs were collected. Plug hemoglobin content was analyzed from three implants/mice (n=6 per group) to measure angiogenesis.
The matrigel plugs dissected from the mice were carefully stripped of any remaining peritoneum. The plugs were placed into 0.5 mL tube of ddH2O and homogenized for 5-10 min. […] Absorbance was read with a Microplate Manager ELISA reader at 540 nm. […] Hemoglobin concentration is a reflection of the number of blood vessels in the plugs.

Setting [3] is: 0.01 uM; n = 8 per group; PBS (Control) 89.4 ± 9.3.
Where [4] appears, read: 0.1 uM; n = 8 per group; PBS (Control) 89.4 ± 9.3.
The mark [5] stands for this setting: 10 μg/matrigel plug, numbers are T4 analogs of Example 12.
The mark [6] stands for this setting: 10 μg/matrigel plug, numbers are T4 analogs of Example 12, n = 6-7, Control 0.3 ± 0.1.
Where [7] appears, read: 1 μM; numbers are T4 analogs of Example 12.
The mark [8] stands for this setting: 1 μM; numbers are T4 analogs of Example 12; mean ± SEM, n = 8; PBS 73 ± 6.
Where [9] appears, read: T4 + test substance, each 10 μg/matrigel plug, n = 25, T4 alone 1.2 ± 0.4.
The mark [10] stands for this setting: numbers are T4 analogs of Example 12.
Setting [11] is: Gallus gallus, read-out: Mean % of stimulation (comparing to PBS).

Where “and” joins values, the source holds several entries; their conditions need not be identical. Identical values can stand only once. Like-named read-outs stand apart in the source and are kept apart here.

On to `Cc1cc(OCC(=O)O)cc(C)c1Cc1ccc(O)c(C(C)C)c1` [GC-1, 3,5-dimethyl-4-(4′-hydroxy-3′-isopropylbenzyl)-phenoxy acetic acid], for which the “ANGIOGENESIS INDEX” value in data set [1] (setting [3]) worked out at 169.6 ± 11.6; in data set [1] (setting [4]), 152.7 ± 9.0.

With `CC(C)[Si](OC(=O)C(Cc1cc(I)c(Oc2cc(I)c(O)c(I)c2)c(I)c1)NC(=O)OC(C)(C)C)(C(C)C)C(C)C` (centres unmarked) [T4 analog 13, Triisopropylsilyl-2-(tert-butoxycarbonylamino)-3-(4-(4-hydroxy-3,5-diiodophenoxy)-3,5-diidoclophenyl)propanoate], the “Mean stimulation of angiogenesis (%)” value in data set [2] (setting [5]) amounted to 0 ± 17%. For the same compound, the “Hemoglobin (mg/mL) ± SEM” value in data set [2] (setting [6]) stood at 0.3 ± 0.1 mg/mL. For the same compound, the “Mean % of stimulation (comparing to PBS)” value in data set [1] (setting [7]) is on record as 4.1 ± 6.5%. Further, the “Mean Branch points” value is reported as 76 ± 7 in data set [1] (setting [8]) and 105 ± 7 in data set [1] (FGF (1.25 μg/ml) + test substance, 10 μg/plug per footnote; numbers are Tetrac analogs of Example 13; n = 8; PBS 73 ± 6, FGF 130 ± 11). The “Mean % Inhibition” value in data set [1] (FGF (1.25 μg/ml) + test substance, 10 μg/plug per footnote; numbers are Tetrac analogs of Example 13) is reported as 44 ± 13%.

Regarding `CCNC(Cc1cc(I)c(Oc2cc(I)c(O)c(I)c2)c(I)c1)C(=O)OCC` (centres unmarked) [T4 analog 12, Ethyl-2-(ethylamino)-3-[4-(4-hydroxy-3,5-diiodophenoxy)-3,5-diiodophenyl]propanoate], in data set [2] (setting [9]), the “Hemoglobin (mg/mL) ± SEM” value is recorded as 0.4 ± 0.1 mg/mL. The “Mean Branch points” value in data set [1] (FGF (1.25 μg/ml) + T4 analog 12 (0.1 μM); PBS 73 ± 6) was 46 ± 2. Moreover, the “effect on FGF and T4 activity, CAM and matrigel assays (in words)” value in data set [1] (T4 analog of Example 12) is “entirely inhibiting FGF and T4 activity”. Further, the “effect on angiogenesis, representative illustrations FIG. 23 (in words)” value (from here on “effect on angiogenesis”) in data set [1] (setting [10]) is on record as “anti-angiogenic”.

As for “FGF2: human recombinant FGF2, basic fibroblast growth factor, standard proangiogenic agent”, the “Hemoglobin (mg/mL) ± SEM” value in data set [2] (FGF 100 ng alone, Control 0.3 ± 0.1) was determined as 2.4 ± 0.4 mg/mL. Moreover, the “ANGIOGENESIS INDEX” value in data set [1] (1 uM; n = 8 per group; PBS (Control) 89.4 ± 9.3) worked out at 155 ± 9. Moreover, the “Branch pts ± SEM” value in data set [1] (1.25 μg/ml; PBS 76.0 ± 8.5) turned out to be 137.9 ± 7.5. Further, in data set [1] (FGF 1.25 μg/mL alone), the “Mean % of stimulation (comparing to PBS)” value was 178.1 ± 7.5%. Further, the “Mean Branch points” value in data set [1] (FGF 1.25 μg/mL alone; n = 8; PBS 73 ± 6) was determined as 130 ± 11. Besides, in data set [1] (FGF2 1 μg/mL), the “stimulation of branch formation” value is listed as 2.2 fold. Moreover, the increase in angiogenesis in data set [1] (FIG. 5, 3 experiments; concentration not given) is 2 fold.

On to `O=C(Cc1cc(I)c(Oc2cc(I)c(OCC3CO3)c(I)c2)c(I)c1)OCC1CO1` (centres unmarked), for which the melting point was 116 °C.

Consider `CC(=O)NC(Cc1cc(I)c(Oc2cc(I)c(OC(C)=O)c(I)c2)c(I)c1)C(=O)O` (centres unmarked) [Compound 9], for which the change in vivo at 0.1 µM in data set [1] (Gallus gallus; read-out: Mean % of stimulation (comparing to PBS)) worked out at 67.1 ± 5%.

As to `CCNC(Cc1cc(I)c(Oc2cc(I)c(O)c(I)c2)c(I)c1)C(=O)O` (centres unmarked) [PRIAB12], in data set [1] (0.1 μM; PBS 76.0 ± 8.5), the “Branch pts ± SEM” value came out at 121.7 ± 13.6.

As for `O=C(O)C(Cc1cc(I)c(Oc2cc(I)c(O)c(I)c2)c(I)c1)NC(c1ccccc1)(c1ccccc1)c1ccccc1` (centres unmarked) [PRIAB2], in data set [1] (0.1 μM; PBS 76.0 ± 8.5), the “Branch pts ± SEM” value came out at 136.0 ± 18.1.

Regarding `CC(C)[Si](OC(=O)Cc1cc(I)c(Oc2cc(I)c(OCC3CO3)c(I)c2)c(I)c1)(C(C)C)C(C)C` (centres unmarked), the melting point worked out at 120 °C.

For `CC(C)[Si](OC(=O)C(Cc1cc(I)c(Oc2cc(I)c(OCC3CO3)c(I)c2)c(I)c1)NC(=O)OC(C)(C)C)(C(C)C)C(C)C` (centres unmarked) (hydrate or solvate) [T4 analog 15, Triisopropylsilyl-2-(tert-butoxycarbonylamino)-3-(4-(3,5-diiodo-4-(oxiran-2-ylmethoxy)phenoxy)-3,5-diiodophenyl)propanoate], the melting point turned out to be 109 °C.

As to `O=C(Cc1cc(I)c(Oc2cc(I)c(O)c(I)c2)c(I)c1)NC1CCCCC1` [Tetrac analog 4, N-cyclohexyl-2-(4-(4-hydroxy-3,5-diiodophenoxy)-3,5-diiodophenyl)acetamide], in data set [2], the inhibition in vivo at 10 µg/plug turned out to be 104 ± 12% and the “inhibition of FGF-induced angiogenesis (in words)” value is “strong”. Also, the “inhibition of angiogenesis in the CAM assay (in words)” value in data set [1] (numbers are Tetrac analogs of Example 13) is “not as strong as compounds 3, 5, 7, and 9”.

With `CC(C)[Si](OC(=O)C(Cc1cc(I)c(Oc2cc(I)c(OCC3CO3)c(I)c2)c(I)c1)NC(=O)OC(C)(C)C)(C(C)C)C(C)C` (centres unmarked) [T4 analog 15, Triisopropylsilyl-2-(tert-butoxycarbonylamino)-3-(4-(3,5-diiodo-4-(oxiran-2-ylmethoxy)phenoxy)-3,5-diiodophenyl)propanoate], in data set [2] (setting [5]), the “Mean stimulation of angiogenesis (%)” value came out at 0 ± 17%. In data set [2] (setting [6]), the “Hemoglobin (mg/mL) ± SEM” value is listed as 0.3 ± 0.1 mg/mL. In data set [1] (setting [8]), the “Mean Branch points” value stood at 98 ± 8. Moreover, in data set [1] (setting [11]), the change in vivo at 1 µM turned out to be 34.2 ± 7%. In data set [1] (setting [10]), the “effect on angiogenesis” value is listed as “no effect”.

For the compound `O=C(O)Cc1cc(I)c(Oc2cc(I)c(OCC3CO3)c(I)c2)c(I)c1` (centres unmarked) [Compound 9], in data set [2], the inhibition in vivo at 10 µg/plug was determined as 100 ± 12%.

`CC(C)(C)OC(=O)NC(Cc1cc(I)c(Oc2cc(I)c(OCC3CO3)c(I)c2)c(I)c1)C(=O)OCC1CO1` (centres unmarked) [T4 analog 14, Oxiran-2-ylmethyl-2-(tert-butoxycarbonylamino)-3-(4-(3,5-diiodo-4-(oxiran-2-ylmethoxy)phenoxy)-3,5-diiodophenyl)propanoate]: the “Mean stimulation of angiogenesis (%)” value in data set [2] (setting [5]) is recorded as 0 ± 17%. The “Hemoglobin (mg/mL) ± SEM” value in data set [2] (setting [6]) came to 0.3 ± 0.1 mg/mL. In addition, the “Mean % of stimulation (comparing to PBS)” value in data set [1] (setting [7]) amounted to 56.2 ± 7.5%. The “Mean Branch points” value in data set [1] (setting [8]) is on record as 114 ± 11.

For the compound `CC(C)(C)OC(=O)NC(Cc1cc(I)c(Oc2cc(I)c(O)c(I)c2)c(I)c1)C(=O)O` (centres unmarked) [Compound 7], the change in vivo at 0.1 µM in data set [1] (setting [11]) came out at 137 ± 7.5%.

On to `CC(C)(C)OC(=O)NC(Cc1cc(I)c(Oc2cc(I)c(OCC3CO3)c(I)c2)c(I)c1)C(=O)OCC1CO1` (centres unmarked) (hydrate or solvate) [T4 analog 14, Oxiran-2-ylmethyl-2-(tert-butoxycarbonylamino)-3-(4-(3,5-diiodo-4-(oxiran-2-ylmethoxy)phenoxy)-3,5-diiodophenyl)propanoate], for which the melting point stood at 105 °C.

Turning to `CC(C)(C)OC(=O)Cc1cc(I)c(Oc2cc(I)c(O)c(I)c2)c(I)c1` [Tetrac analog 3, tert-Butyl-2-(4-(4-hydroxy-3,5-diiodophenoxy)-3,5-diiodophenyl)acetate], the “inhibition of FGF-induced angiogenesis (in words)” value in data set [2] is “strong”.

In the case of tetraiodothyroacetic acid [Tetrac], the “Mean inhibition of angiogenesis (%)” value in data set [2] (T4 + test substance, each 10 μg/matrigel plug) is 89 ± 11%. In addition, the “Hemoglobin (mg/mL) ± SEM” value in data set [2] (setting [9]) worked out at 0.4 ± 0.1 mg/mL.

For `CNC(Cc1cc(I)c(Oc2cc(I)c(O)c(I)c2)c(I)c1)C(=O)O` (centres unmarked) [PRIAB6], in data set [1] (0.1 μM; PBS 76.0 ± 8.5), the “Branch pts ± SEM” value is given as 136.2 ± 12.4.

In the case of `O=C(O)CCc1cc(I)c(Oc2ccc(O)cc2)c(I)c1` [DITPA, 3,5-diiodothyropropionic acid], the “ANGIOGENESIS INDEX” value turned out to be 133.0 ± 11.6 in data set [1] (setting [3]), 167.3 ± 12.7 in data set [1] (setting [4]) and 117.9 ± 5.6 in data set [1] (0.2 mM; n = 8 per group; PBS (Control) 89.4 ± 9.3).

As to `CCNC(Cc1cc(I)c(Oc2cc(I)c(O)c(I)c2)c(I)c1)C(=O)O` (centres unmarked) [T4 analog 11, 2-(Ethylamino)-3-[4-(4-hydroxy-3,5-diiodophenoxy)-3,5-diiodophenyl]propanoic acid], in data set [1] (setting [10]), the “effect on angiogenesis” value is “proangiogenesis”.

Consider `CNC(Cc1cc(I)c(Oc2cc(I)c(O)c(I)c2)c(I)c1)C(=O)[O-].O.O.[K+]` (centres unmarked) [T4 analog 10, Potassium 3-[4-(4-hydroxy-3,5-diiodophenoxy)-3,5-diiodophenyl]-2-(methylamino)propanoate dihydrate], for which, in data set [2] (10 μg/matrigel plug, numbers are T4 analogs of Example 12, dihydrate), the “Mean stimulation of angiogenesis (%)” value was 87% and 87 ± 33%. In addition, in data set [2] (setting [6]), the “Hemoglobin (mg/mL) ± SEM” value is recorded as 0.8 ± 0.2 mg/mL. In addition, the “Mean % of stimulation (comparing to PBS)” value in data set [1] (0.1 μM; numbers are T4 analogs of Example 12) was 43.8 ± 6.5%. The “Mean Branch points” value in data set [1] (0.1 μM; numbers are T4 analogs of Example 12; mean ± SEM, n = 8; PBS 73 ± 6) is 105 ± 7.

Take `CC(C)(C)OC(=O)NC(Cc1cc(I)c(Oc2cc(I)c(O)c(I)c2)c(I)c1)C(=O)O` (centres unmarked) [T4 analog 7, 2-[(Tert-butoxycarbonyl)amino]-3-[4-(4-hydroxy-3,5-diiodophenoxy)-3,5-diiodophenyl]propanoic acid]: the “Branch pts ± SEM” value in data set [1] (0.1 μM; PBS 65.2 ± 14.9) is listed as 173 ± 9.9.
